pIC50: −log10 of the molar value.
Tests used:
[1] = target: native α7 nAChR in rat brain membranes (Rattus norvegicus, UniProt Q05941); test: biochemical; format: binding; details: for inhibition at 10 µM: read-out: Percent binding/inhibition, α7 receptor (selectivity study)
[2] = tested on: DFP-induced seizure-like behaviors; details: mouse, in vivo
[3] = target: human α7 nAChR (Homo sapiens, UniProt P36544); test: cell-based
[4] = target: neuronal α4β2 nAChRs (Rattus norvegicus, UniProt P09483+P12390); test: biochemical; details: read-out: Percent binding/inhibition, neuronal α4β2
[5] = target: muscle-type nAChR (Homo sapiens, UniProt P02708+P07510+Q07001); format: binding
[6] = target: T1, human 5HT3 receptor (Homo sapiens, UniProt P46098); test: biochemical; details: read-out: Percent binding/inhibition, 5HT3 receptor
T1 sequence (P46098 24-478): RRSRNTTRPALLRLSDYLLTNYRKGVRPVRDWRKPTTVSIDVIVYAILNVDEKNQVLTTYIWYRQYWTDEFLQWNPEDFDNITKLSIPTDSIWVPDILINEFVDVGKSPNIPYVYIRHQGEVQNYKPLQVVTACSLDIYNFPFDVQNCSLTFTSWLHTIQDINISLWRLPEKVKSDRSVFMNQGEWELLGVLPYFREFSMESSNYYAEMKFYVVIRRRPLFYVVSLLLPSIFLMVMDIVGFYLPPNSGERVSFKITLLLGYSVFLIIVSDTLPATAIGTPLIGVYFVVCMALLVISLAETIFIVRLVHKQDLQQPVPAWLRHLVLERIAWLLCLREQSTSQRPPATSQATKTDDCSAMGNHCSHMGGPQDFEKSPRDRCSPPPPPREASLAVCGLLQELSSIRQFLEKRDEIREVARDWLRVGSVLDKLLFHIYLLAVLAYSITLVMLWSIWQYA

[7] = male, C57Bl/6, mouse, in vivo, ip, 10 mg/kg

Sequence of native α7 nAChR in rat brain membranes (Q05941 23-502): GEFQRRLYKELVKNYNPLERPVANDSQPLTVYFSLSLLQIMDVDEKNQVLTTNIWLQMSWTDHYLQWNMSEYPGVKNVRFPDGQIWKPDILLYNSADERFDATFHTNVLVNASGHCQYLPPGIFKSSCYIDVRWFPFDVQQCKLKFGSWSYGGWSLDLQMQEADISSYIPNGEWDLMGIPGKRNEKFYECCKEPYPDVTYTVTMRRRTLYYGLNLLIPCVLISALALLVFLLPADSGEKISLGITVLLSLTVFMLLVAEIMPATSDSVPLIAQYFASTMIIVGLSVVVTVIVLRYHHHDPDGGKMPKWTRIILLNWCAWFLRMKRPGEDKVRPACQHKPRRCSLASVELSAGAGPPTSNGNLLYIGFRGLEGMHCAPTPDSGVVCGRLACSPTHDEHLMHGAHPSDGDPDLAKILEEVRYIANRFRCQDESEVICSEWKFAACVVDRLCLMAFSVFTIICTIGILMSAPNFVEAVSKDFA
Sequence of muscle-type nAChR (P02708 21-457): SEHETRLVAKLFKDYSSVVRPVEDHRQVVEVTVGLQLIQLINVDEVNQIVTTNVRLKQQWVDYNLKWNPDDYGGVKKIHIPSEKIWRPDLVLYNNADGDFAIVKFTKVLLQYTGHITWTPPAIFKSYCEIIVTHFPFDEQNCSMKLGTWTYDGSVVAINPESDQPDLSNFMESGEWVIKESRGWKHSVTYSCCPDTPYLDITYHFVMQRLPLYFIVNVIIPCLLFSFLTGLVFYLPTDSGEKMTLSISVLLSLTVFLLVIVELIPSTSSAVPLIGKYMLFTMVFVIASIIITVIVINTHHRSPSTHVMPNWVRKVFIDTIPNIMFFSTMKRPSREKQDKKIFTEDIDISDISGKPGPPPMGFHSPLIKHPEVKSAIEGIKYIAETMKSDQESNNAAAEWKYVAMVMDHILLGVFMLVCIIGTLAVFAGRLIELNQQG
Sequence of muscle-type nAChR (P07510 23-517): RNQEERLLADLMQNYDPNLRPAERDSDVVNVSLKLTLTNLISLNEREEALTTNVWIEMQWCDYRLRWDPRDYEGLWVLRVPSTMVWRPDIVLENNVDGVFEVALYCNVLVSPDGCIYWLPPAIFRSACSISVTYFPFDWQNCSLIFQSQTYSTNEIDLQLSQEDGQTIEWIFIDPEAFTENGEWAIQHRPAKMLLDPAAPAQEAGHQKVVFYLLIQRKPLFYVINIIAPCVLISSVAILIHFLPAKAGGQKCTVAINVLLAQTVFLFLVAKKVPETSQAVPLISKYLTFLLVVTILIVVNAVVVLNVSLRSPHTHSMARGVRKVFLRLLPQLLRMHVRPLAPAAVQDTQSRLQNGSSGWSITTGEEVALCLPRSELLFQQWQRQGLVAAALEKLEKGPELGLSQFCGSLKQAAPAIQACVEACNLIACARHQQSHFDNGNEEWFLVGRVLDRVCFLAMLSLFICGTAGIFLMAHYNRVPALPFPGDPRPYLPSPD
Sequence of muscle-type nAChR (P11230 24-501, further chain): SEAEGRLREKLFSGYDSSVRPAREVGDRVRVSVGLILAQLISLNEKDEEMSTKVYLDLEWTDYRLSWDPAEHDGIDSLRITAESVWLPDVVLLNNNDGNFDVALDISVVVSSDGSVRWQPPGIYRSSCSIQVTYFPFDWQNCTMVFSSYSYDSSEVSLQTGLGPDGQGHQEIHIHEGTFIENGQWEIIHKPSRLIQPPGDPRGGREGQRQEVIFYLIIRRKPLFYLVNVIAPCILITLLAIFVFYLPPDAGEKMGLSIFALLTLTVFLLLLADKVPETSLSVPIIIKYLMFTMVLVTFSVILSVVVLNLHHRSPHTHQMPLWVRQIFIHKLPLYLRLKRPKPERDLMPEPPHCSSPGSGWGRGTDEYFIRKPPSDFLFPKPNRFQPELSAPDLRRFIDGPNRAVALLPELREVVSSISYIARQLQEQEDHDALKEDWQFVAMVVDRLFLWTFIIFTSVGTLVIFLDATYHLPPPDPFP
Sequence of muscle-type nAChR (Q07001 22-517): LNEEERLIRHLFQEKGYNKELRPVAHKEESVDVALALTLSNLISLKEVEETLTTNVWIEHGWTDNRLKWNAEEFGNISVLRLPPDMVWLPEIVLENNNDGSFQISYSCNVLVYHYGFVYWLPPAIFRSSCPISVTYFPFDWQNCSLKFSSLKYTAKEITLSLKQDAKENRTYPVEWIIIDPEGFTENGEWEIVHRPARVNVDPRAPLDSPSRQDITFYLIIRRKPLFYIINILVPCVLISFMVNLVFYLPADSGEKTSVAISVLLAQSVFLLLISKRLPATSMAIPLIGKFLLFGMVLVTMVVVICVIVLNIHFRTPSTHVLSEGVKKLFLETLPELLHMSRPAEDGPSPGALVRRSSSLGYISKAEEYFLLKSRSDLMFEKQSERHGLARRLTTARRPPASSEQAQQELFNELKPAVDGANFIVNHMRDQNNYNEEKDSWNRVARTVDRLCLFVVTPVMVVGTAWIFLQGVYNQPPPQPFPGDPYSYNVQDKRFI
Sequence of human α7 nAChR (P36544 23-502): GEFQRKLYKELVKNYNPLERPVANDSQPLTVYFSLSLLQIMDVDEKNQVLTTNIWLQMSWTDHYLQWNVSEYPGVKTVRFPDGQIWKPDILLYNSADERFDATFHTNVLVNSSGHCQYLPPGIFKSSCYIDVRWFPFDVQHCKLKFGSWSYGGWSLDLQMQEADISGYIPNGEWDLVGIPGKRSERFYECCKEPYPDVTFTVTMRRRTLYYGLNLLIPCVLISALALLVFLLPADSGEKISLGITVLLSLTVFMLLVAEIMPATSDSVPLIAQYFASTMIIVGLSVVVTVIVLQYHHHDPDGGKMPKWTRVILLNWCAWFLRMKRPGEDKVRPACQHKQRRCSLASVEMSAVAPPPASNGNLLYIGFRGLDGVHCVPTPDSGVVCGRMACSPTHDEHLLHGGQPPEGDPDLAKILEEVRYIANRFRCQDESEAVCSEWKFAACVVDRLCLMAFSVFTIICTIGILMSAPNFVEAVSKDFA
Sequence of neuronal α4β2 nAChRs (P09483 31-630): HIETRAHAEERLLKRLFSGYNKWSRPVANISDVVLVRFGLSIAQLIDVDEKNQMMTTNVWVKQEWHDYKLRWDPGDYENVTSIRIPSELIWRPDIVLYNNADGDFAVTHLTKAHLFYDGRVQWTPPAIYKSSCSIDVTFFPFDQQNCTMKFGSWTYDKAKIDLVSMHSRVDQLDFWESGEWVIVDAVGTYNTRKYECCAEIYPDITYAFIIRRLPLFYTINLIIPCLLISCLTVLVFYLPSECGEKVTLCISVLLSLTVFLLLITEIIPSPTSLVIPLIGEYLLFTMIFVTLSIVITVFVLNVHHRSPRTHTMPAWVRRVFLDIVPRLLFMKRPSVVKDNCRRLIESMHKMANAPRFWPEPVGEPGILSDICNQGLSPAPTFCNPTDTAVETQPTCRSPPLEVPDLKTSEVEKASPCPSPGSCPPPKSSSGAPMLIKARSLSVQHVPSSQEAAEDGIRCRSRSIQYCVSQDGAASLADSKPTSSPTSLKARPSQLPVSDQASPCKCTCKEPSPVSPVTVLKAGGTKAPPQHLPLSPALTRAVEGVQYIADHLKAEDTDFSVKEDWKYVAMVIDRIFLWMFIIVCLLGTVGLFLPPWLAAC
Sequence of neuronal α4β2 nAChRs (P12390 25-500): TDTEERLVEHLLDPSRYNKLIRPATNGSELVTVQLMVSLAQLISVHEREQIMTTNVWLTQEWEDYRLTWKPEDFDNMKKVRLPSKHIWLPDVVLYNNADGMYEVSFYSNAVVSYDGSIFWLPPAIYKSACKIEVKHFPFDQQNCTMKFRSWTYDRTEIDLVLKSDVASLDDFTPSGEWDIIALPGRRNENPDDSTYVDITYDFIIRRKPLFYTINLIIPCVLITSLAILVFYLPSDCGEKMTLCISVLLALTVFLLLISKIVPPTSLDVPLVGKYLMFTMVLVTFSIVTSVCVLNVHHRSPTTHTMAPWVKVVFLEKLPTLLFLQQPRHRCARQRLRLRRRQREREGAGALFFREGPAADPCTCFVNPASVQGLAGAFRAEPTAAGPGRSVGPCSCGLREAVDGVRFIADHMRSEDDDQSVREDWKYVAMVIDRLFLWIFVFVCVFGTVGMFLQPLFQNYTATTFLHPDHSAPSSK

| SMILES | binding affinity to the α7 nAChR (in words) [1] | Normalized % neuroprotection [2] [%] | Normalized % seizure [2] [%] | Seizure score (mean ± SD) [2] | pIC50 [3] | inhibition at 10 µM [4] [%] | binding to the muscle-type nAChR [5] | inhibition at 10 µM [6] [%] | concentration in brain [7] [µM] | pIC50 [1] | inhibition at 10 µM [1] [%] |
| --- | --- | --- | --- | --- | --- | --- | --- | --- | --- | --- | --- |
| CCCc1c(C(=O)NC2CCN(C)CC2)cnn1-c1ccccc1 [8h] | completely abolished the binding affinity | – | – | – | – | – | – | – | – | – | – |
| CCCc1c(C(=O)NC2CCNCC2)cnn1-c1ccccc1 [8i] | completely abolished the binding affinity | – | – | – | – | – | – | – | – | – | – |
| CN(CC1CCN(Cc2ccccc2)CC1)C(=O)c1cn(Cc2ccccc2Cl)nn1 [compound 7i] | – | 93.4 | 6.6 | 0.6 ± 1.3 | 5.42 | – | – | – | – | – | – |
| CCCc1c(C(=O)NC2CCN(Cc3ccccc3)CC2)cnn1-c1ccccc1 [compound 8] | – | 91.2 | 8.8 | 0.8 ± 1.3 | 4.72 | 1.3 | no detectable binding | 14.3 | 9 | 5.54 | 82.5 |
| O=C(NCC1CCN(Cc2ccccc2)CC1)c1cn(Cc2cccc(Cl)c2)nn1 [compound 7] | – | – | – | – | – | 18.8 | no detectable binding | 8.4 | – | – | 82.5 |

— article PMC3000800 (Bioorganic & medicinal chemistry letters, 2010)
